What follows are compounds tested on HIV (assay: MT4 Assay (anti-HIV activity)). Details: Human immunodeficiency virus 1, 96 h, read-out: HIV MT4 Assay IC50, HTLV-1 transformed cell line MT-4, cell titer glo, 10 point dose response curve.
Format: cell-based
Description: Antiviral HIV activity and cytotoxicity values for compounds of the invention from Table 1 were measured in parallel in the HTLV-1 transformed cell line MT-4 based on the method previously described (Hazen et al., 2007, In vitro antiviral activity of the novel, tyrosyl-based human immunodeficiency virus (HIV) type 1 protease inhibitor brecanavir (GW640385) in combination with other antiretrovirals and against a panel of protease inhibitor-resistant HIV (Hazen et al., “In vitro antiviral activity of the novel, tyrosyl-based human immunodeficiency virus (HIV) type 1 protease inhibitor brecanavir (GW640385) in combination with other antiretrovirals and against a panel of protease inhibitor-resistant HIV”, Antimicrob. Agents Chemother. 2007, 51: 3147-3154; and Pauwels et al., “Sensitive and rapid assay on MT-4 cells for the detection of antiviral compounds against the AIDS virus”, J. of Virological Methods 1987, 16: 171-185).
Luciferase activity was measured 96 hours later by adding a cell titer glo (Promega, Madison, Wis.). Percent inhibition of cell protection data was plotted relative to no compound control. Under the same condition, cytotoxicity of the compounds was determined using cell titer glo (Promega, Madison, Wis.). IC50s were determined from a 10 point dose response curve using 3-4-fold serial dilution for each compound, which spans a concentration range >1000 fold.

Compared with Cc1c(-c2c([C@H](OC(C)(C)C)C(=O)O)n(C)c(=O)c3cc(-c4cnn(C)c4)ccc23)cc(F)c2c1CCCO2 (atropisomer, axis not shown; (M)) [Example 200, (2S)(M)-[(1,1-dimethylethyl)oxy][4-(8-fluoro-5-methyl-3,4-dihydro-2H-chromen-6-yl)-2-methyl-7-(1-methyl-1H-pyrazol-4-yl)-1-oxo-1,2-dihydro-3-isoquinolinyl]ethanoic acid], Cc1c(-c2c([C@H](OC(C)(C)C)C(=O)O)n(C)c(=O)c3cc(-c4cnn(CCC(C)C)c4)ccc23)cc(F)c2c1CCCO2 (atropisomer, axis not shown; (M)) [Example 201, (2S)(M)-[(1,1-dimethylethyl)oxy]{4-(8-fluoro-5-methyl-3,4-dihydro-2H-chromen-6-yl)-2-methyl-7-[1-(3-methylbutyl)-1H-pyrazol-4-yl]-1-oxo-1,2-dihydro-3-isoquinolinyl}ethanoic acid] is 2.8-fold lower in IC50: 110 nM for the first, 40 nM for the second.

First: Cc1c(-c2c([C@H](OC(C)(C)C)C(=O)O)n(C)c(=O)c3cc(-c4cccn4C)ccc23)cc(F)c2c1CCCO2 (atropisomer, axis not shown; (M)) [Example 202, (S)(M)-[(1,1-dimethylethyl)oxy][4-(8-fluoro-5-methyl-3,4-dihydro-2H-chromen-6-yl)-2-methyl-7-(1-methyl-1H-pyrrol-2-yl)-1-oxo-1,2-dihydro-3-isoquinolinyl]ethanoic acid]
Second: Cc1c(-c2c([C@H](OC(C)(C)C)C(=O)O)n(C)c(=O)c3cc(-c4ccccc4)ccc23)cc(F)c2c1CCCO2 (atropisomer, axis not shown; (M)) [Example 204, (2S)(M)-[(1,1-dimethylethyl)oxy][4-(8-fluoro-5-methyl-3,4-dihydro-2H-chromen-6-yl)-2-methyl-1-oxo-7-phenyl-1,2-dihydro-3-isoquinolinyl]ethanoic acid]
The IC50 of the first is 1.5-fold lower: 20 nM for the first, 30 nM for the second. The first is the more potent here.

Going from Cc1occc1-c1ccc2c(-c3cc(F)c4c(c3C)CCCO4)c([C@H](OC(C)(C)C)C(=O)O)n(C)c(=O)c2c1 (atropisomer, axis not shown; (M)) [Example 203, (2S)(M)-[(1,1-dimethylethyl)oxy][4-(8-fluoro-5-methyl-3,4-dihydro-2H-chromen-6-yl)-2-methyl-7-(2-methyl-3-furanyl)-1-oxo-1,2-dihydro-3-isoquinolinyl]ethanoic acid] to Cc1c(-c2c([C@H](OC(C)(C)C)C(=O)O)n(C)c(=O)c3cc(-c4ccccc4F)ccc23)cc(F)c2c1CCCO2 (atropisomer, axis not shown; (M)) [Example 211, (S)(M)-2-(tert-butoxy)-2-(4-(8-fluoro-5-methylchroman-6-yl)-7-(2-fluorophenyl)-2-methyl-1-oxo-1,2-dihydroisoquinolin-3-yl)acetic acid], the IC50 falls from 30 nM to 20 nM (1.5-fold). The second is the more potent here.

Cc1c(-c2c([C@H](OC(C)(C)C)C(=O)O)n(C)c(=O)c3cc(-c4ccncc4)ccc23)cc(F)c2c1CCCO2 (atropisomer, axis not shown; (M)) [Example 205, (2S)(M)-[(1,1-dimethylethyl)oxy][4-(8-fluoro-5-methyl-3,4-dihydro-2H-chromen-6-yl)-2-methyl-1-oxo-7-(4-pyridinyl)-1,2-dihydro-3-isoquinolinyl]ethanoic acid] and Cc1c(-c2c([C@H](OC(C)(C)C)C(=O)O)n(C)c(=O)c3cc(-c4cccnc4)ccc23)cc(F)c2c1CCCO2 (atropisomer, axis not shown; (M)) [Example 206, (2S)(M)-[(1,1-dimethylethyl)oxy][4-(8-fluoro-5-methyl-3,4-dihydro-2H-chromen-6-yl)-2-methyl-1-oxo-7-(3-pyridinyl)-1,2-dihydro-3-isoquinolinyl]ethanoic acid] are the same in IC50: 160 nM for the first, 160 nM for the second.

Compared with Cc1noc(C)c1-c1ccc2c(-c3cc(F)c4c(c3C)CCCO4)c([C@H](OC(C)(C)C)C(=O)O)n(C)c(=O)c2c1 (atropisomer, axis not shown; (M)) [Example 207, (2S)(M)-[(1,1-dimethylethyl)oxy][7-(3,5-dimethyl-4-isoxazolyl)-4-(8-fluoro-5-methyl-3,4-dihydro-2H-chromen-6-yl)-2-methyl-1-oxo-1,2-dihydro-3-isoquinolinyl]ethanoic acid], COc1cccc(-c2ccc3c(-c4cc(F)c5c(c4C)CCCO5)c([C@H](OC(C)(C)C)C(=O)O)n(C)c(=O)c3c2)n1 (atropisomer, axis not shown; (M)) [Example 208, (2S)(M)-[(1,1-dimethylethyl)oxy]{4-(8-fluoro-5-methyl-3,4-dihydro-2H-chromen-6-yl)-2-methyl-7-[6-(methyloxy)-2-pyridinyl]-1-oxo-1,2-dihydro-3-isoquinolinyl}ethanoic acid] is 2-fold lower in IC50: 80 nM for the first, 40 nM for the second. The second is the more potent here.

First: Cc1c(-c2c([C@H](OC(C)(C)C)C(=O)O)n(C)c(=O)c3cc(-c4ccc(F)cc4)ccc23)cc(F)c2c1CCCO2 (atropisomer, axis not shown; (M)) [Example 209, (S)(M)-2-(tert-butoxy)-2-(4-(8-fluoro-5-methylchroman-6-yl)-7-(4-fluorophenyl)-2-methyl-1-oxo-1,2-dihydroisoquinolin-3-yl)acetic acid]
Second: Cc1c(-c2c([C@H](OC(C)(C)C)C(=O)O)n(C)c(=O)c3cc(-c4cccc(F)c4)ccc23)cc(F)c2c1CCCO2 (atropisomer, axis not shown; (M)) [Example 210, (S)(M)-2-(tert-butoxy)-2-(4-(8-fluoro-5-methylchroman-6-yl)-7-(3-fluorophenyl)-2-methyl-1-oxo-1,2-dihydroisoquinolin-3-yl)acetic acid]
The IC50 of the first is 2-fold higher: 20 nM for the first, 10 nM for the second.

Cc1c(-c2c([C@H](OC(C)(C)C)C(=O)NO)n(C)c(=O)c3ccccc23)cc(F)c2c1CCCO2 (atropisomer, axis not shown; (M)) [Example 213, (S)(M)-2-(tert-butoxy)-2-(4-(8-fluoro-5-methylchroman-6-yl)-2-methyl-1-oxo-1,2-dihydroisoquinolin-3-yl)-N-hydroxyacetamide] and Cc1c(-c2c([C@H](OC(C)(C)C)C(=O)N(C)O)n(C)c(=O)c3ccccc23)cc(F)c2c1CCCO2 (atropisomer, axis not shown; (M)) [Example 214, (S)(M)-2-(tert-butoxy)-2-(4-(8-fluoro-5-methylchroman-6-yl)-2-methyl-1-oxo-1,2-dihydroisoquinolin-3-yl)-N-hydroxy-N-methylacetamide] are within 1.5-fold of each other in IC50: 5250 nM for the first, 4840 nM for the second.

Going from Cc1c(-c2c([C@H](OC(C)(C)C)C(=O)NS(C)(=O)=O)n(C)c(=O)c3ccccc23)cc(F)c2c1CCCO2 (atropisomer, axis not shown; (M)) [Example 215, (2S)(M)-2-[(1,1-dimethylethyl)oxy]-2-[4-(8-fluoro-5-methyl-3,4-dihydro-2H-chromen-6-yl)-2-methyl-1-oxo-1,2-dihydro-3-isoquinolinyl]-N-(methylsulfonyl)ethanamide] to Cc1c(-c2c(C(OC(C)(C)C)C(=O)O)n(C)c(=O)c3cc(OCCO)ccc23)ccc2c1CCCO2 (stereo not drawn) [Example 4, tert-Butoxy-[7-(2-hydroxy-ethoxy)-2-methyl-4-(5-methyl-chroman-6-yl)-1-oxo-1,2-dihydro-isoquinolin-3-yl]-acetic acid], the IC50 falls from 11100 nM to 3700 nM (3-fold).

Going from COc1c(C)cc(-c2c(C(OC(C)(C)C)C(=O)O)n(C)c(=O)c3ccccc23)cc1C (stereo not drawn) [Example 1, tert-Butoxy-[4-(4-methoxy-3,5-dimethyl-phenyl)-2-methyl-1-oxo-1,2-dihydro-isoquinolin-3-yl]-acetic acid] to Cc1ccc(-c2c([C@H](OC(C)(C)C)C(=O)O)n(C)c(=O)c3ccccc23)cc1C [Example 3, (S)-2-(tert-butoxy)-2-(4-(3,4-dimethylphenyl)-2-methyl-1-oxo-1,2-dihydroisoquinolin-3-yl)acetic acid], the IC50 falls from 6590 nM to 440 nM (15-fold). The second is the more potent here.

Compared with Cn1c(C(OC(C)(C)C)C(=O)O)c(-c2ccc(OC(F)(F)F)cc2)c2ccccc2c1=O (stereo not drawn) [Example 5, 2-(tert-butoxy)-2-{2-methyl-1-oxo-4-[4-(trifluoromethoxy)phenyl]-1,2-dihydroisoquinolin-3-yl}acetic acid], COc1ccc(-c2c(C(OC(C)(C)C)C(=O)O)n(C)c(=O)c3ccccc23)cc1 (stereo not drawn) [Example 8, 2-(tert-butoxy)-2-[4-(4-methoxyphenyl)-2-methyl-1-oxo-1,2-dihydroisoquinolin-3-yl]acetic acid] is 32-fold lower in IC50: 41700 nM for the first, 1300 nM for the second.

Cn1c(C(OC(C)(C)C)C(=O)O)c(-c2cc(F)cc(F)c2)c2ccccc2c1=O (stereo not drawn) [Example 6, 2-(tert-butoxy)-2-[4-(3,5-difluorophenyl)-2-methyl-1-oxo-1,2-dihydroisoquinolin-3-yl]acetic acid] and Cc1cc(C)cc(-c2c(C(OC(C)(C)C)C(=O)O)n(C)c(=O)c3ccccc23)c1 (stereo not drawn) [Example 10, 2-(tert-butoxy)-2-[4-(3,5-dimethylphenyl)-2-methyl-1-oxo-1,2-dihydroisoquinolin-3-yl]acetic acid] are within 1.5-fold of each other in IC50: 10600 nM for the first, 10500 nM for the second.

Compared with Cc1ccc(-c2c(C(OC(C)(C)C)C(=O)O)n(C)c(=O)c3ccccc23)cc1 (stereo not drawn) [Example 7, 2-(tert-butoxy)-2-[2-methyl-4-(4-methylphenyl)-1-oxo-1,2-dihydroisoquinolin-3-yl]acetic acid], Cn1c(C(OC(C)(C)C)C(=O)O)c(-c2ccc(F)cc2)c2ccccc2c1=O (stereo not drawn) [Example 9, 2-(tert-butoxy)-2-[4-(4-fluorophenyl)-2-methyl-1-oxo-1,2-dihydroisoquinolin-3-yl]acetic acid] is 1.9-fold higher in IC50: 700 nM for the first, 1330 nM for the second.
